Results taken from patent publication US20160120863A1, “SLC2A TRANSPORTER INHIBITORS” (IOMET PHARMA LTD., priority 2013, published 2016).

What follows are compounds tested against T1, human GLUT1 (Homo sapiens, UniProt P11166) (assay: [3H]-deoxy-D-glucose uptake assay, GLUT1). Conditions: [3H]-deoxy-D-glucose uptake in HEK293 cells stably expressing human GLUT1.
T1 construct: expressed in transfected cells
T1 sequence (P11166 1-492): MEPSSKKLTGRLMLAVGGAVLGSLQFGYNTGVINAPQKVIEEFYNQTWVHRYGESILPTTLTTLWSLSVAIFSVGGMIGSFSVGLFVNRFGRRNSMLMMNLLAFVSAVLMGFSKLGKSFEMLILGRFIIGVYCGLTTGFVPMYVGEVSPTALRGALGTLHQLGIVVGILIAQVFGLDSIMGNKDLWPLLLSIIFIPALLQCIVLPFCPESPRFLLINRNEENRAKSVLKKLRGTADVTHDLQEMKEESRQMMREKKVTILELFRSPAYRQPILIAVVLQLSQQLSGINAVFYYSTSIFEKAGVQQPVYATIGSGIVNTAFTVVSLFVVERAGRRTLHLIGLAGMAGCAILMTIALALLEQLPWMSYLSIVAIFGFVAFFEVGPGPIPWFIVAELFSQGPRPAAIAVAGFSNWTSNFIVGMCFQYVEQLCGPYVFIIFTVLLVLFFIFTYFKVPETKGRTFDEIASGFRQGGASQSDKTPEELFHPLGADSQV
Assay type: cell-based
Summary of the method: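 HEK293 cells stably overexpressing human GLUT1 or GLUT2, seeded at 60,000 per well, treated with compounds in glucose-free uptake buffer for 30 min at 37 °C. [3H]-deoxy-D-glucose uptake quantified by scintillation counting after ice-cold PBS washes; IC50 determined.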

| SMILES | GLUT1 pIC50 |
| --- | --- |
| CC(=O)N1CCN(Cc2c(-c3cccc([N+](=O)[O-])c3)nc3ccc(-c4ccccc4)cn23)CC1 [Compound 59] | ++ (pIC50 5.00-5.99) |
| NC(=O)c1ccc(-c2nc3ccc(-c4ccccc4)cn3c2CN2CCOCC2)cc1 [Compound 109] | +− (pIC50 < 4.00) |
| Clc1ccc(-c2nc3ccc(-c4ccncc4)cn3c2CN2CCOCC2)cc1 [Compound 82] | ++ (pIC50 5.00-5.99) |
| CS(=O)(=O)Nc1ccc2nc(-c3ccc(Cl)cc3)c(CN3CCN(C(=O)C4COC4)CC3)n2c1 [Compound 286] | +++ (pIC50 ≧ 6.00) |
| O=C(C1CCOCC1)N1CCN(Cc2c(-c3ccc(Cl)cc3)nc3cnc(C4CC4)cn23)CC1 [Compound 256] | +++ (pIC50 ≧ 6.00) |
| Clc1ccc(-c2nc3ccc(Cc4ccccc4)cn3c2CN2CCOCC2)cc1 [Compound 203] | ++ (pIC50 5.00-5.99) |
| Fc1ccc(-c2nc3ccc(-c4ccccc4)cn3c2CN2CCOCC2)cc1 [Compound 76] | + (pIC50 4.00-4.99) |
| COCC(=O)N1CCN(Cc2c(-c3ccc(Cl)cc3)nc3ccc(-c4ccccc4C#N)cn23)CC1 [Compound 218] | +++ (pIC50 ≧ 6.00) |
| O=C(C1CCCC1)N1CCN(Cc2c(-c3ccc(Cl)cc3)nc3ccc(-c4ccccc4)cn23)CC1 [Compound 47] | +++ (pIC50 ≧ 6.00) |
| COc1ccc(-c2ccc3nc(-c4ccc(Cl)cc4)c(CN4CCOCC4)n3c2)cc1 [Compound 86] | + (pIC50 4.00-4.99) |
| Clc1ccc(-c2nc3ccc(-c4ccccc4)cn3c2CN2CCn3ncnc3C2)cc1 [Compound 175] | ++ (pIC50 5.00-5.99) |
| O=[N+]([O-])c1ccc(-c2nc3ccc(-c4ccccc4)cn3c2CN2CCNCC2)cc1 [Compound 12] | + (pIC50 4.00-4.99) |
| CC(=O)NC1CCN(Cc2c(-c3ccc(Cl)cc3)nc3ccc(-c4ccccc4)cn23)CC1 [Compound 210] | ++ (pIC50 5.00-5.99) |
| Cc1ccc(C(=O)N2CCN(Cc3c(-c4ccc(F)cc4)nc4ccc(-c5ccccc5)cn34)CC2)cc1 [Compound 40] | ++ (pIC50 5.00-5.99) |
| COc1cccc(-c2ccc3nc(-c4ccc(Cl)cc4)c(CN4CCOCC4)n3c2)c1 [Compound 84] | ++ (pIC50 5.00-5.99) |
| O=C(c1ccccn1)N1CCN(Cc2c(-c3ccc(Cl)cc3)nc3ccc(-c4ccccc4)cn23)CC1 [Compound 144] | +++ (pIC50 ≧ 6.00) |
| O=C(c1ccncc1)N1CCN(Cc2c(-c3ccc(Cl)cc3)nc3ccc(-c4ncon4)cn23)CC1 [Compound 281] | +++ (pIC50 ≧ 6.00) |
| O=C1CN(Cc2c(-c3ccc(Cl)cc3)nc3ccc(-c4ccccc4)cn23)CCN1Cc1ccccc1 [Compound 134] | ++ (pIC50 5.00-5.99) |
| O=C(c1cc[nH]c(=O)c1)N1CCN(Cc2c(-c3ccc(Cl)cc3)nc3ccc(-c4ccccc4)cn23)CC1 [Compound 244] | +++ (pIC50 ≧ 6.00) |
| Fc1cccnc1-c1ccc2nc(-c3ccc(Cl)cc3)c(CN3CCOCC3)n2c1 [Compound 251] | ++ (pIC50 5.00-5.99) |
| COCC(=O)N1CCN(Cc2c(-c3ccc(Cl)cc3)nc3ccc(-c4c(F)cccc4F)cn23)CC1 [Compound 225] | +++ (pIC50 ≧ 6.00) |
| O=C(c1cscn1)N1CCN(Cc2c(-c3ccc(Cl)cc3)nc3ccc(-c4ccccc4)cn23)CC1 [Compound 159] | +++ (pIC50 ≧ 6.00) |
| N#Cc1cccc(-c2nc3ccc(-c4ccccc4)cn3c2CN2CCOCC2)c1 [Compound 100] | + (pIC50 4.00-4.99) |
| Clc1ccc(-c2nc3ccc(-c4ncccn4)cn3c2CN2CCOCC2)cc1 [Compound 241] | ++ (pIC50 5.00-5.99) |
| O=S(=O)(c1cccc(F)c1)N1CCN(Cc2c(-c3ccc(Cl)cc3)nc3ccc(-c4ccccc4)cn23)CC1 [Compound 90] | +− (pIC50 < 4.00) |
